Assay [1] concerns BCL-2 G101V knock-in cell line H96 (derive from RS4;11). Briefly: Bcl 2-G101V Knock-In RS4;11 Cell Proliferation Assay. It counts as cell-based. Conditions: Homo sapiens, RS4;11 Bcl-2 G101V knock-in clone H96, 48 hrs, CellTiter-GLO, read-out: Cellular proliferation assay (IC50, nM) RS4. In short, it runs like this: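 H96, a CRISPR-generated RS4;11 clone carrying BCL2-G101V knock-in (WES/RNA-seq validated), seeded 50,000 per well and exposed 48 h at 37 °C to 10-point dilutions topping at 1 or 10 μM. Viability by CellTiter-Glo luminescence; mean IC50.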
On the technique in general: ATP-based viability assays read luminescence as a measure of living cells.

Assay [2] deals with recombinant human Bcl-2-G101V protein. Kind of assay: Bcl-2-G101V TR-FRET Assay. It counts as binding. The settings on record: ratio of biochemical IC50 Bcl-2 G101V / Bcl-2 WT. In short, it runs like this: (§1)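 TR-FRET read at excitation 337 nm with emission at 490 nm and 520 nm. Inhibition of Bcl-2-G101V binding to its ligand across increasing compound concentrations was calculated from the 490/520 nm fluorescence ratio, and IC50 values came from four-parameter logistic fits.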

The target in assay [3] is recombinant human Bcl-2-G101V protein (Homo sapiens (Human), UniProt P10415, G101V). Briefly: Bcl-2-G101V TR-FRET Assay. The format is binding. The settings on record: Bcl-2 G101V mutant, TR-FRET; read-out: Biochemical assay (IC50, nM) Bcl-2 G101V. Summed up:
as §1

The target in assay [4] is Recombinant human Bcl-2 protein (Homo sapiens (Human), UniProt P10415). Briefly: Bcl-2 TR-FRET Assay. The format is binding. Summed up: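 Compounds were pre-incubated with 0.05 nM recombinant Bcl-2 for 0.5 h at room temperature in potassium phosphate buffer, pH 7.5. FITC-Bak peptide (0.5 nM) and Tb-cryptate antibody were then added for 1 h. Percent inhibition from TR-FRET signals gave IC50 values.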
(In general: TR-FRET usually uses a lanthanide donor and a delayed reading to cut background.)

In assay [5] the test system is RS4;11 (BCL-2 dependent acute lymphoblastic leukemia cell line). Kind of assay: RS4;11 Cell Proliferation Assay. The format is cell-based. Conditions: Homo sapiens, RS4-11, RS4;11 cells, read-out: Cellular proliferation assay (IC50, nM) RS4. Summed up: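 RS4;11 cells, 50,000 per well in RPMI-1640 with 10% FBS, treated 48 h at 37 °C with a 10-point dilution series topping at 1 μM. Viability read by CellTiter-Glo ATP luminescence; mean IC50 reported.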

The target in assay [6] is recombinant human Bcl-2 D103Y protein (Homo sapiens (Human), UniProt P10415, D103Y). Briefly: Bcl-2-D103Y Biochemical Assay (TR-FRET). It counts as binding. Conditions: for IC50: TR-FRET, FITC labeled Bak peptide; for Ratio of Bcl-2 D103Y/Bcl-2 WT: ratio of IC50. In short, it runs like this: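 Recombinant human Bcl-2 D103Y binding to its ligand measured by TR-FRET (ex 337 nm, em 490/520 nm) with increasing compound concentrations. Percent inhibition from the 490/520 nm ratio; IC50 from four-parameter logistic fit.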

The mark [7] stands for this setting: Bcl-2 wild type, TR-FRET, read-out: Biochemical assay (IC50, nM) Bcl-2 WT.
[8] abbreviates: wild type Bcl-2, unit inferred, read-out: Bcl-2 WT.

Like-named read-outs stand apart in the source and are kept apart here.

`[2H]C([2H])([2H])Oc1ccc(CN2CCN(C3CC4(C3)CN(c3ccc(C(=O)NS(=O)(=O)c5ccc(NC[C@H]6CC[C@](C)(O)CC6)c([N+](=O)[O-])c5)c(Oc5cnc6[nH]cc(F)c6c5)c3)C4)[C@H](c3ccccc3C(C)C)C2)cc1OC([2H])([2H])[2H]` [Example 197, 4-(6-((R)-4-(3,4-bis(methoxy-d3)benzyl)-2-(2-isopropylphenyl)piperazin-1-yl)-2-azaspiro[3.3]heptan-2-yl)-2-((3-fluoro-1H-pyrrolo[2,3-b]pyridin-5-yl)oxy)-N-((4-((((1r,4r)-4-hydroxy-4-methylcyclohexyl)methyl)amino)-3-nitrophenyl)sulfonyl)benzamide]: the IC50 was 0.29 nM in assay [1]; 0.15 nM in assay [3]; 0.076 nM in assay [4] (setting [7]); 0.076 nM in assay [4] (setting [8]); 0.16 nM in assay [5]; 0.089 nM in assay [6]. The “Ratio of Bcl-2 G101V/WT” value in assay [2] is listed as 1.9. In addition, in assay [6], the “Ratio of Bcl-2 D103Y/Bcl-2 WT” value is recorded as 1.2.

As to `COc1ccc(CN2CCN(C3CC4(CCN(c5ccc(C(=O)NS(=O)(=O)c6ccc(NC[C@H]7CC[C@](C)(O)CC7)c([N+](=O)[O-])c6)c(Oc6cnc7[nH]ccc7c6)c5)CC4)C3)C(c3ccccc3C(C)C)C2)c2c1OCCO2` (stereo partly shown) [Example 203, 2-((1H-pyrrolo[2,3-b]pyridin-5-yl)oxy)-N-((4-((((1r,4r)-4-hydroxy-4-methylcyclohexyl)methyl)amino)-3-nitrophenyl)sulfonyl)-4-(2-(2-(2-isopropylphenyl)-4-((8-methoxy-2,3-dihydrobenzo[b][1,4]dioxin-5-yl)methyl)piperazin-1-yl)-7-azaspiro[3.5]nonan-7-yl) benzamide], the IC50 is 0.9 nM in assay [1]; 0.17 nM in assay [3]; 0.052 nM in assay [4] (setting [7]); 0.052 nM in assay [4] (setting [8]); 0.38 nM in assay [5]; 0.083 nM in assay [6]. For the same molecule, the “Ratio of Bcl-2 G101V/WT” value in assay [2] is recorded as 3.2. Moreover, in assay [6], the “Ratio of Bcl-2 D103Y/Bcl-2 WT” value turned out to be 1.6.

`COc1cc(CN2CCN(C3CC4(C3)CN(c3ccc(C(=O)NS(=O)(=O)c5ccc(NC[C@H]6CC[C@](C)(O)CC6)c([N+](=O)[O-])c5)c(Oc5cnc6[nH]cc(F)c6c5)c3)C4)[C@H](c3ccccc3C(C)C)C2)cnc1OC` [Example 205, 4-(6-((R)-4-((5,6-dimethoxypyridin-3-yl)methyl)-2-(2-isopropylphenyl)piperazin-1-yl)-2-azaspiro[3.3]heptan-2-yl)-2-((3-fluoro-1H-pyrrolo[2,3-b]pyridin-5-yl)oxy)-N-((4-((((1r,4r)-4-hydroxy-4-methylcyclohexyl)methyl)amino)-3-nitrophenyl)sulfonyl) benzamide]: the IC50 in assay [1] is 0.55 nM; in assay [3], 0.07 nM; in assay [4] (setting [7]), 0.034 nM; in assay [4] (setting [8]) it was 0.034 nM; in assay [5], 0.39 nM; in assay [6] it was 0.047 nM. In addition, the “Ratio of Bcl-2 G101V/WT” value in assay [2] is recorded as 2. In addition, the “Ratio of Bcl-2 D103Y/Bcl-2 WT” value in assay [6] turned out to be 1.4.

Regarding `COc1ccc(CN2CCN(C3CC4(C3)CN(c3ccc(C(=O)NS(=O)(=O)c5ccc(NC[C@H]6CC[C@](C)(O)CC6)c([N+](=O)[O-])c5)c(Oc5cnc6[nH]cc(F)c6c5)c3)C4)[C@H](c3ccccc3C(C)C)C2)cn1` [Example 215, 2-((3-fluoro-1H-pyrrolo[2,3-b]pyridin-5-yl)oxy)-N-((4-((((1r,4r)-4-hydroxy-4-methylcyclohexyl)methyl)amino)-3-nitrophenyl)sulfonyl)-4-(6-((R)-2-(2-isopropylphenyl)-4-((6-methoxypyridin-3-yl)methyl)piperazin-1-yl)-2-azaspiro[3.3]heptan-2-yl)benzamide], the IC50 in assay [1] was found to be 0.29 nM; in assay [3], 0.14 nM; in assay [4] (setting [7]) it was 0.057 nM; in assay [4] (setting [8]), 0.057 nM; in assay [5] it was 0.11 nM; in assay [6], 0.062 nM. Besides, in assay [2], the “Ratio of Bcl-2 G101V/WT” value was determined as 2.5. For the same molecule, the “Ratio of Bcl-2 D103Y/Bcl-2 WT” value in assay [6] is listed as 1.1.

For the molecule `COc1ccc(CN2CCN(C3CC4(CCN(c5ccc(C(=O)NS(=O)(=O)c6ccc(NC[C@H]7CC[C@](C)(O)CC7)c([N+](=O)[O-])c6)c(Oc6cnc7[nH]cc(F)c7c6)c5)CC4)C3)[C@H](c3ccccc3C(C)C)C2)cn1` [Example 217, 2-((3-fluoro-1H-pyrrolo[2,3-b]pyridin-5-yl)oxy)-N-((4-((((1r,4r)-4-hydroxy-4-methylcyclohexyl)methyl)amino)-3-nitrophenyl)sulfonyl)-4-(2-((R)-2-(2-isopropylphenyl)-4-((6-methoxypyridin-3-yl)methyl)piperazin-1-yl)-7-azaspiro[3.5]nonan-7-yl)benzamide], the IC50 in assay [1] was found to be 0.41 nM; in assay [3], 0.17 nM; in assay [4] (setting [7]), 0.074 nM; in assay [4] (setting [8]) it was 0.074 nM; in assay [5] it was 0.11 nM; in assay [6], 0.1 nM. Further, the “Ratio of Bcl-2 G101V/WT” value in assay [2] worked out at 2.4. In addition, in assay [6], the “Ratio of Bcl-2 D103Y/Bcl-2 WT” value is reported as 1.4.

For `[2H]C([2H])([2H])Oc1ccc(CN2CCN(C3CC4(C3)CN(c3ccc(C(=O)NS(=O)(=O)c5ccc(NC[C@H]6CC[C@](C)(O)CC6)c([N+](=O)[O-])c5)c(Oc5cnc6[nH]cc(F)c6c5)c3)C4)[C@H](c3ccccc3C(C)C)C2)cc1` [Example 218, 2-((3-fluoro-1H-pyrrolo[2,3-b]pyridin-5-yl)oxy)-N-((4-((((1r,4r)-4-hydroxy-4-methylcyclohexyl)methyl)amino)-3-nitrophenyl)sulfonyl)-4-(6-((R)-2-(2-isopropylphenyl)-4-(4-(methoxy-d3)benzyl)piperazin-1-yl)-2-azaspiro[3.3]heptan-2-yl) benzamide], the IC50 worked out at 0.29 nM in assay [1]; 0.25 nM in assay [3]; 0.1 nM in assay [4] (setting [7]); 0.1 nM in assay [4] (setting [8]); 0.12 nM in assay [5]; 0.11 nM in assay [6]. Also, the “Ratio of Bcl-2 G101V/WT” value in assay [2] is reported as 2.5. In assay [6], the “Ratio of Bcl-2 D103Y/Bcl-2 WT” value worked out at 1.0.

For the molecule `COc1ccc(CN2CCN(C3CC4(CCN(c5ccc(C(=O)NS(=O)(=O)c6ccc(NCC7(F)CCC(C)(O)CC7)c([N+](=O)[O-])c6)c(Oc6cnc7[nH]ccc7c6)c5)CC4)C3)[C@H](c3ccccc3C(C)C)C2)cc1` (stereo partly drawn) [Example 225, (R)-2-((1H-pyrrolo[2,3-b]pyridin-5-yl)oxy)-N-((4-(((1-fluoro-4-hydroxy-4-methylcyclohexyl)methyl)amino)-3-nitrophenyl)sulfonyl)-4-(2-(2-(2-isopropylphenyl)-4-(4-methoxybenzyl)piperazin-1-yl)-7-azaspiro[3.5]nonan-7-yl) benzamide], the IC50 in assay [1] was determined as 0.65 nM; in assay [3], 0.37 nM; in assay [4] (setting [7]), 0.092 nM; in assay [4] (setting [8]) it was 0.092 nM; in assay [5] it was 0.13 nM; in assay [6], 0.1 nM. For the same molecule, the “Ratio of Bcl-2 G101V/WT” value in assay [2] came out at 4. Further, in assay [6], the “Ratio of Bcl-2 D103Y/Bcl-2 WT” value stood at 1.1.

On to `CC(C)c1ccccc1[C@@H]1CN(Cc2ccc(F)c(F)c2)CCN1C1CC2(C1)CN(c1ccc(C(=O)NS(=O)(=O)c3ccc(NC[C@H]4CC[C@](C)(O)CC4)c([N+](=O)[O-])c3)c(Oc3cnc4[nH]cc(F)c4c3)c1)C2` [Example 229, 4-(6-((R)-4-(3,4-difluorobenzyl)-2-(2-isopropylphenyl)piperazin-1-yl)-2-azaspiro[3.3]heptan-2-yl)-2-((3-fluoro-1H-pyrrolo[2,3-b]pyridin-5-yl)oxy)-N-((4-((((1r,4r)-4-hydroxy-4-methylcyclohexyl)methyl)amino)-3-nitrophenyl)sulfonyl) benzamide], for which the IC50 in assay [1] is 0.53 nM; in assay [3], 0.96 nM; in assay [4] (setting [7]), 0.38 nM; in assay [4] (setting [8]) it was 0.38 nM; in assay [5], 0.12 nM; in assay [6], 0.45 nM. In addition, the “Ratio of Bcl-2 G101V/WT” value in assay [2] is 2.5. The “Ratio of Bcl-2 D103Y/Bcl-2 WT” value in assay [6] was determined as 1.2.

These data come from patent US20240376097A1, “BCL-2 Inhibitor” (BeiGene Ltd., priority 2020, published 2024).
